pIC50: −log10 of the molar value. Where a name gives a salt, the structure may show the parent alone.
Target: T1, human IKK-β (Homo sapiens, UniProt O14920)
T1 construct: A cDNA fragment encoding human IKK-β open reading frame was generated by PCR; His tag (from pcDNA3.1/His C); made in house; host or cells: Sf21 insect cells (baculovirus); substrate made in E. coli
T1 sequence (O14920 1-756): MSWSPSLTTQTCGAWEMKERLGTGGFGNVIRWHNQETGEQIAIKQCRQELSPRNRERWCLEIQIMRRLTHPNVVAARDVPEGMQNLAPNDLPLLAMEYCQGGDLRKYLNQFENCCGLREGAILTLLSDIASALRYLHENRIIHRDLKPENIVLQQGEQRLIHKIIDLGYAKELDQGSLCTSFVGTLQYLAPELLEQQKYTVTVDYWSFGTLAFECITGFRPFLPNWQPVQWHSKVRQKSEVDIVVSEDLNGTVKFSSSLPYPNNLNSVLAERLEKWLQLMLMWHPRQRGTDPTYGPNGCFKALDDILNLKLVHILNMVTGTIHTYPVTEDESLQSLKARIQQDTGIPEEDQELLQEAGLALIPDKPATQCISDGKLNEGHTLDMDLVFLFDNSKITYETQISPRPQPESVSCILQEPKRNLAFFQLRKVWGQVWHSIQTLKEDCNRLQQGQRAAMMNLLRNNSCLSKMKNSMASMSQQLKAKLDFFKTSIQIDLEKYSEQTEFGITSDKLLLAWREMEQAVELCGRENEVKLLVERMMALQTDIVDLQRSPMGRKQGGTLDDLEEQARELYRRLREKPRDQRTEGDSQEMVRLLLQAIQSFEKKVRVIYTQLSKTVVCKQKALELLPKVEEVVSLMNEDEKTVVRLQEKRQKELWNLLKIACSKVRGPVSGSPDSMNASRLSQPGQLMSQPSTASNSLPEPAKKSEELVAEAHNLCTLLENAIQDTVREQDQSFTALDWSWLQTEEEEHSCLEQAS
Assay: IKK-β kinase inhibitory assay
Format: biochemical
Conditions: compounds as yielded by solid phase synthesis, purity about 40 to 90%, read-out: In vitro activity grade (In vitro IC50)
In short: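 Radiometric read-out: streptavidin capture of 33P-labelled bio-GST-IκBα(1-54), 0.2 μM, after a 2 h room-temperature reaction started with ATP/[γ-33P]ATP. Enzyme was recombinant His-tagged human IKK-β expressed in Sf21 insect cells, used at 0.6 μg/ml in Tris-HCl pH 7.6/MgCl2 kinase buffer. Compounds added in 2.5% DMSO.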

Compound	pIC50
N#Cc1c(C2CCCNC2)cc(-c2c(O)cccc2OCc2ccc(Cl)cc2)nc1N (centres unmarked) [Example 2-19]	> 6.30
CCOc1cccc(O)c1-c1cc(C2CCNCC2)c(C#N)c(N)n1 [Example 2-75]	> 6.30
CCCCCCCOc1cccc(O)c1-c1cc(C2CCNCC2)c(C#N)c(N)n1 [Example 2-73]	> 6.30
N#Cc1c(C2CCCNC2)cc(-c2c(O)cccc2OCc2ccccc2Cl)nc1N (centres unmarked) [Example 2-17]	> 6.30
N#Cc1c([C@@H](N)Cc2ccc(F)cc2)cc(-c2ccccc2O)nc1N [Example 1-30]	> 6.30
N#Cc1c(C2CCCNC2)cc(-c2c(O)cccc2OCc2cccc(Br)c2)nc1N (centres unmarked) [Example 2-11]	> 6.30
N#Cc1c(C2CCCNC2)cc(-c2cccc(Cl)c2O)nc1N (centres unmarked) [Example 1-20]	> 6.30
NC(=O)C1Cc2c(C3CCNCC3)cc(-c3c(O)cccc3OCC3CC3)nc2NC1=O (centres unmarked) [Example 26-2, 7-[2-(cyclopropylmethoxy)-6-hydroxyphenyl]-2-oxo-5-(4-piperidinyl)-1,2,3,4-tetrahydro-1,8-naphthyridine-3-carboxamide hydrochloride]	> 6.30

Now from value to compound:

pIC50	Compound
> 6.30	NC(=O)c1cc2c(C3CCNCC3)cc(-c3c(O)cccc3OCC3CC3)nc2[nH]c1=O [Example 25-3, 7-[2-(cyclopropylmethoxy)-6-hydroxyphenyl]-2-oxo-5-(4-piperidinyl)-1,2-dihydro-1,8-naphthyridine-3-carboxamide hydrochloride]
> 6.30	O=C1Nc2nc(-c3c(O)cccc3OCC3CC3)cc(C3CCCNC3)c2CN1C(=O)NC1CCCCC1 (centres unmarked) [Example 24-3, N-cyclohexyl-7-[2-(cyclopropylmethoxy)-6-hydroxyphenyl]-2-oxo-5-(3-piperidinyl)-1,4-dihydropyrido[2,3-d]pyrimidine-3(2H)-carboxamide hydrochloride]
> 6.30	CC(C)(C)C(=O)COc1cccc(O)c1-c1cc(C2CCNCC2)c(C#N)c(N)n1 [Example 2-78]
> 6.30	N#Cc1c([C@@H](N)Cc2ccccc2)cc(-c2ccccc2O)nc1N [Example 1-25]
> 6.30	CC(C)(C)C(=O)COc1cccc(O)c1-c1cc(C2CCCNC2)c(C#N)c(N)n1 (centres unmarked) [Example 2-77]
> 6.30	N#Cc1c(C2CCCNC2)cc(-c2c(O)cccc2OCC2CCCO2)nc1N (centres unmarked) [Example 2-80]
> 6.30	N#Cc1c(C2CCC(C(=O)O)CC2)cc(-c2ccccc2O)nc1N (centres unmarked) [Example 1-38]
> 6.30	N#Cc1c(C2CCCC(N)C2)cc(-c2ccccc2O)nc1N (centres unmarked) [Example 1-23]
> 6.30	N#Cc1c(C2CCCNC2)cc(-c2c(O)cccc2OCc2cccc(C(F)(F)F)c2)nc1N (centres unmarked) [Example 2-09]

— US6984649B1, “Pyridine derivatives” (Bayer Aktiengesellschaft, priority 2000, dated 2006)
